In patent US11058680B2, “Combinations of opioid/TLR4 antagonists and acetaminophen for use in the treatment of emotional pain and insomnia” (Allodynic Threapeutics, LLC, priority 2016, dated 2021):
Where “and” joins values, the source holds several entries; their conditions need not be identical. Equal entries are not always repeated.

System: migraine attacks
Assay: Naltrexone/acetaminophen open-label pilot study, acute treatment of migraine: headache pain (4-point scale; relief score ≤1, pain-free score = 0), associated symptoms, additional meds
Type: in vivo, human
Description: Sixteen unique patients were enrolled in an open phase pilot study for the acute treatment of migraine attacks, insomnia, and emotional pain. Of the sixteen patients, eleven were evaluated for one migraine attack, one for two attacks, two for four attacks, one for six attacks, and one for fourteen attacks. A total of forty-one […] treatments were evaluated. Patients received a single dose of one of the following treatment options:
The majority of the patients remained in the clinic for observation for 2 hours after dosing. They completed headache diary assessments immediately before and after dosing at time points: 7, 15, and 30 minutes; and 1, 1.5, 2, 3, 6, 12, 24, and 48 hours. Headache pain was assessed on a 4-point scale (0=none; 1=mild; 2=moderate; 3=severe). The assessment of photophobia, phonophobia, nausea, and neck/shoulder pain was assessed as present or absent. The assessment of emotional pain was recorded on a 4-point scale (0=none, 1=mild, 2=moderate, 3=severe). The assessment of difficulty sleeping or falling asleep (insomnia) was assessed on a 4-point scale (0=none, 1=mild, 2=moderate, 3=severe) at baseline, for the night before treatment and for the following nights at 24, and 48 hours. Patients recorded side effects severity at each time point. Patients recorded the time of the first rescue medication dose and all additional headache medications used within 48 hours. Patients were required to stay awake to record their assessments in the first 2 hours, sleeping was permitted thereafter. While asleep, assessments were completed according to patients' best estimation. For data analysis, it was assumed that a migraine attack is a unique patient. Patients were asked to specify (yes or no answer) to whether they experienced emotional pain symptoms such as: hurt feelings, sadness, fear, or anger. Patients who replied positively to having emotional pain were asked to specify the cause into one of the following options: relationship, work/school, money/debt, health, or loss/grief.

[1] = 1 h, NTX/APAP 3.25 mg/325 mg, NTX 3.25 mg
[2] = 1 h, NTX/APAP 5 mg/325 mg, NTX 5 mg
[3] = 1 h, NTX/APAP […]325 mg, NTX 1.5 mg
[4] = 1 h, naltrexone/acetaminophen 2.25 mg/325 mg (N=21), naltrexone 2.25 mg (N=9)
[5] = 90 min, NTX/APAP 2.25 mg/325 mg, NTX 2.25 mg
[6] = 90 min, NTX/APAP 3.25 mg/325 mg, NTX 3.25 mg
[7] = 90 min, NTX/APAP 5 mg/325 mg, NTX 5 mg
[8] = 90 min, NTX/APAP […]325 mg, NTX 1.5 mg
[9] = 90 min, naltrexone/acetaminophen 2.25 mg/325 mg (N=21), naltrexone 2.25 mg (N=9)
[10] = 2 h, NTX/APAP 2.25 mg/325 mg, NTX 2.25 mg
[11] = 2 h, NTX/APAP 3.25 mg/325 mg, NTX 3.25 mg
[12] = 2 h, NTX/APAP 5 mg/325 mg, NTX 5 mg
[13] = 2 h, NTX/APAP […]325 mg, NTX 1.5 mg
[14] = 2 h, naltrexone/acetaminophen 2.25 mg/325 mg (N=21), naltrexone 2.25 mg (N=9)
[15] = 3 h, NTX/APAP 2.25 mg/325 mg, NTX 2.25 mg

O=C1CC[C@@]2(O)[C@H]3Cc4ccc(O)c5c4[C@@]2(CCN3CC2CC2)[C@H]1O5 [naltrexone]
Headache pain-relief [1]: 3 (100) n (%)
Most bothersome symptom free [1]: 2 (66) n (%)
Nausea-free [1]: 3 (100) n (%)
Neck/shoulder pain-free [1]: 3 (100) n (%)
Phonophobia-free [1]: 2 (66) n (%)
Photophobia-free [1]: 1 (33) n (%)
Additional meds taken [2]: 0
Headache pain-free [2]: 0 n (%)
Headache pain-relief [2]: 1 n (%)
Most bothersome symptom free [2]: 1 n (%)
Nausea-free [2]: 1 n (%)
Neck/shoulder pain-free [2]: 1 n (%)
Phonophobia-free [2]: 1 n (%)
Photophobia-free [2]: 1 n (%)
Additional meds taken [3]: 0
Headache pain-free [3]: 1 (33) n (%)
Headache pain-relief [3]: 2 (66) n (%)
Most bothersome symptom free [3]: 1 (33) n (%)
Nausea-free [3]: 3 (100) n (%)
Neck/shoulder pain-free [3]: 2 (66) n (%)
Phonophobia-free [3]: 1 (33) n (%)
Photophobia-free [3]: 2 (66) n (%)
Additional meds taken (1 h, all doses combined): 0
Headache pain-free (1 h, all doses combined): 8 (50) n (%)
Headache pain-relief (1 h, all doses combined): 13 (81) n (%)
Most bothersome symptom free (1 h, all doses combined): 11 (69) n (%)
Nausea-free (1 h, all doses combined): 12 (75) n (%)
Neck/shoulder pain-free (1 h, all doses combined): 12 (75) n (%)
Phonophobia-free (1 h, all doses combined): 12 (75) n (%)
Photophobia-free (1 h, all doses combined): 10 (63) n (%)
Headache pain-free (1 h, naltrexone 1.5 mg (N=3)): 33%
Headache pain-free [4]: 44%
Headache pain-relief [4]: 88%
Most bothersome symptom-free [4]: 77%
Headache pain-free (1 h, naltrexone/acetaminophen 3.25 mg/325 mg (N=3), naltrexone 3.25 mg (N=3)): 100%
Additional meds taken [5]: 0 (0)
Headache pain-free [5]: 7 (77) n (%)
Headache pain-relief [5]: 9 (100) n (%)
Most bothersome symptom free [5]: 9 (100) n (%)
Nausea-free [5]: 9 (100) n (%)
Neck/shoulder pain-free [5]: 9 (100) n (%)
Phonophobia-free [5]: 9 (100) n (%)
Photophobia-free [5]: 8 (88) n (%)
Additional meds taken [6]: 0 (0)
Headache pain-free [6]: 3 (100) n (%)
Headache pain-relief [6]: 3 (100) n (%)
Most bothersome symptom free [6]: 2 (66) n (%)
Nausea-free [6]: 2 (66) n (%)
Neck/shoulder pain-free [6]: 3 (100) n (%)
Phonophobia-free [6]: 2 (66) n (%)
Photophobia-free [6]: 2 (66) n (%)
Additional meds taken [7]: 0 (0)
Headache pain-free [7]: 1 (100) n (%)
Headache pain-relief [7]: 1 (100) n (%)
Most bothersome symptom free [7]: 1 (100) n (%)
Nausea-free [7]: 1 (100) n (%)
Neck/shoulder pain-free [7]: 1 (100) n (%)
Phonophobia-free [7]: 1 (100) n (%)
Photophobia-free [7]: 1 (100) n (%)
Additional meds taken [8]: 0 (0)
Headache pain-free [8]: 1 (33) n (%)
Headache pain-relief [8]: 3 (100) n (%)
Most bothersome symptom free [8]: 2 (66) n (%)
Nausea-free [8]: 3 (100) n (%)
Neck/shoulder pain-free [8]: 1 (33) n (%)
Phonophobia-free [8]: 1 (100) n (%)
Photophobia-free [8]: 1 (100) n (%)
Additional meds taken (90 min, all doses combined): 0
Headache pain-free (90 min, all doses combined): 13 (81) n (%)
Headache pain-relief (90 min, all doses combined): 16 (100) n (%)
Most bothersome symptom free (90 min, all doses combined): 14 (88) n (%)
Nausea-free (90 min, all doses combined): 16 (100) n (%)
Neck/shoulder pain-free (90 min, all doses combined): 14 (88) n (%)
Phonophobia-free (90 min, all doses combined): 13 (81) n (%)
Photophobia-free (90 min, all doses combined): 12 (75) n (%)
Headache pain-free (90 min, naltrexone 1.5 mg (N=3)): 100%
Headache pain-free [9]: 77% and 100%
Headache pain-relief [9]: 100%
Most bothersome symptom-free [9]: 100%
Headache pain-free (90 min, naltrexone/acetaminophen 3.25 mg/325 mg (N=3), naltrexone 3.25 mg (N=3)): 100%
Additional meds taken [10]: 0
Headache pain-free [10]: 7 (77) n (%)
Headache pain-relief [10]: 9 (100) n (%)
Most bothersome symptom free [10]: 9 (100) n (%)
Nausea-free [10]: 9 (100) n (%)
Neck/shoulder pain-free [10]: 9 (100) n (%)
Phonophobia-free [10]: 9 (100) n (%)
Photophobia-free [10]: 8 (88) n (%)
Additional meds taken [11]: 0
Headache pain-free [11]: 3 (100) n (%)
Headache pain-relief [11]: 3 (100) n (%)
Most bothersome symptom free [11]: 3 (100) n (%)
Nausea-free [11]: 3 (100) n (%)
Neck/shoulder pain-free [11]: 3 (100) n (%)
Phonophobia-free [11]: 3 (100) n (%)
Photophobia-free [11]: 3 (100) n (%)
Additional meds taken [12]: 0
Headache pain-free [12]: 1 n (%)
Headache pain-relief [12]: 1 n (%)
Most bothersome symptom free [12]: 1 n (%)
Nausea-free [12]: 1 n (%)
Neck/shoulder pain-free [12]: 1 n (%)
Phonophobia-free [12]: 1 n (%)
Photophobia-free [12]: 1 n (%)
Additional meds taken [13]: 0
Headache pain-free [13]: 3 (100) n (%)
Headache pain-relief [13]: 3 (100) n (%)
Most bothersome symptom free [13]: 3 (100) n (%)
Nausea-free [13]: 3 (100) n (%)
Neck/shoulder pain-free [13]: 3 (100) n (%)
Phonophobia-free [13]: 3 (100) n (%)
Photophobia-free [13]: 3 (100) n (%)
Additional meds taken (2 h, combined doses): 0
Headache pain-free (2 h, combined doses): 14 (88) n (%)
Headache pain-relief (2 h, combined doses): 16 (100) n (%)
Most bothersome symptom free (2 h, combined doses): 16 (100) n (%)
Nausea-free (2 h, combined doses): 16 (100) n (%)
Neck/shoulder pain-free (2 h, combined doses): 16 (100) n (%)
Phonophobia-free (2 h, combined doses): 16 (100) n (%)
Photophobia-free (2 h, combined doses): 16 (100) n (%)
Headache pain-free (2 h, naltrexone 1.5 mg (N=3)): 100%
Headache pain-free [14]: 77% and 100%
Headache pain-relief [14]: 100%
Most bothersome symptom-free [14]: 100%
Headache pain-free (2 h, naltrexone/acetaminophen 3.25 mg/325 mg (N=3), naltrexone 3.25 mg (N=3)): 100%
Additional meds taken [15]: 0 (0)
Headache pain-free [15]: 7 (77) n (%)
Headache pain-relief [15]: 9 (100) n (%)
Most bothersome symptom free [15]: 9 (100) n (%)
Nausea-free [15]: 9 (100) n (%)
Neck/shoulder pain-free [15]: 9 (100) n (%)
Phonophobia-free [15]: 9 (100) n (%)
